Values joined by “and” are separate entries in the source; they are usually repeats but may differ in a detail not shown here. Equal values may be shown once.
These compounds were tested against Hepatocyte growth factor receptor (Homo sapiens, UniProt P08581) (assay: Inhibition Assay).
Chain of Hepatocyte growth factor receptor (P08581 whole entry): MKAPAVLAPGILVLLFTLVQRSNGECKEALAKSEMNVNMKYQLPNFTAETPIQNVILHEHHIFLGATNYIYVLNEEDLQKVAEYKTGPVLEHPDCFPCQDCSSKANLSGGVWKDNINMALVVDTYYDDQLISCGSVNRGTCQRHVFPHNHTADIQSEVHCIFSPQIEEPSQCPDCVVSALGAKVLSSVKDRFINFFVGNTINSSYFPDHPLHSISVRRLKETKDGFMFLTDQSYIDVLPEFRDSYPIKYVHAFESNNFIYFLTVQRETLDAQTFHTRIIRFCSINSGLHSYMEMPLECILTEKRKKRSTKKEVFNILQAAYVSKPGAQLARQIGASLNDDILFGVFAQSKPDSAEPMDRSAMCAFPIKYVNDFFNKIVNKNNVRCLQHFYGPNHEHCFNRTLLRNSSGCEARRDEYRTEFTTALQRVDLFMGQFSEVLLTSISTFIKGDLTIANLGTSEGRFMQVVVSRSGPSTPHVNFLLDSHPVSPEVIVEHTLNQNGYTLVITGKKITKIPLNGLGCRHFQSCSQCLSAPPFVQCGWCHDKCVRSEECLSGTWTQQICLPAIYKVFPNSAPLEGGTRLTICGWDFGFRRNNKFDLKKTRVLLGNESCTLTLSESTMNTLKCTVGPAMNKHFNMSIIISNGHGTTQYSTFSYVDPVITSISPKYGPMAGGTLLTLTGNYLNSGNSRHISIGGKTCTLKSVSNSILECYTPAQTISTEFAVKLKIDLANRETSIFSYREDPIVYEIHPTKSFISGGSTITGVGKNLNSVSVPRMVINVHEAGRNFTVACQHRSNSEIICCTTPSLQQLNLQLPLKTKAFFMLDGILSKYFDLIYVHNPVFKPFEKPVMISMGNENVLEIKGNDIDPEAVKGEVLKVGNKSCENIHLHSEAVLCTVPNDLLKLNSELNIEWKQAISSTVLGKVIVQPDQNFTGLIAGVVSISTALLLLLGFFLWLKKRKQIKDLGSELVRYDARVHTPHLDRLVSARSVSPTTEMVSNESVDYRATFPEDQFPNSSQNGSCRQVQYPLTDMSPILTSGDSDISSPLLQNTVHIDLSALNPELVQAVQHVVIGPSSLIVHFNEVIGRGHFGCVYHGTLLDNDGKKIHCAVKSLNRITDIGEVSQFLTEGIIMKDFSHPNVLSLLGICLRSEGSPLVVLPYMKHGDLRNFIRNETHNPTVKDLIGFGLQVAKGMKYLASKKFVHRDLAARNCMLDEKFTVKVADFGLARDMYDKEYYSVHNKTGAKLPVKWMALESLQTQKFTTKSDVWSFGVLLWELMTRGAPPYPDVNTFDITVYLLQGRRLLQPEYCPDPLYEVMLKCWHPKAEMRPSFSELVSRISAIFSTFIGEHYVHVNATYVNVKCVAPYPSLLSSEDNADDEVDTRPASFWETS
Excerpt: (§1) Inhibition assay using kinase inhibitors.
`CCn1cnc(-c2cc3nccc(Oc4ccc(NC(=O)N5CCN(c6ccccc6)C5=O)cc4F)c3s2)c1` gave an IC50 of 0.01 µM.
In the case of `COc1cc2nccc(Oc3ccc(NC(=O)N4CCN(c5ccccc5)C4=O)cc3F)c2cc1OC`, the IC50 is reported as 0.01 µM.
`O=C(Nc1cc(Oc2ccc(NC(=O)N3CCN(c4ccccc4)C3=O)cc2F)ncn1)N1CCCC1` [Oxo-3-phenylimidazolidine-1-carboxamide, 3] gave an IC50 of 0.15 µM.
Compound `O=C(Nc1cc(Oc2ccc(NC(=O)N3CCN(c4ccccc4)C3=O)cc2F)ccn1)N1CCCC1` [Oxo-3-phenylimidazolidine-1-carboxamide, 4] has an IC50 of 0.23 µM.
In the case of `CC(=O)Nc1cc(Oc2ccc(NC(=O)N3CCN(c4ccccc4)C3=O)cc2F)ccn1` [Oxo-3-phenylimidazolidine-1-carboxamide, 5], the IC50 is reported as 0.31 µM and 2.5 µM.

The compounds below were run against High affinity nerve growth factor receptor (Homo sapiens, UniProt P04629) (assay: Inhibition Assay).
Chain of High affinity nerve growth factor receptor (P04629 whole entry): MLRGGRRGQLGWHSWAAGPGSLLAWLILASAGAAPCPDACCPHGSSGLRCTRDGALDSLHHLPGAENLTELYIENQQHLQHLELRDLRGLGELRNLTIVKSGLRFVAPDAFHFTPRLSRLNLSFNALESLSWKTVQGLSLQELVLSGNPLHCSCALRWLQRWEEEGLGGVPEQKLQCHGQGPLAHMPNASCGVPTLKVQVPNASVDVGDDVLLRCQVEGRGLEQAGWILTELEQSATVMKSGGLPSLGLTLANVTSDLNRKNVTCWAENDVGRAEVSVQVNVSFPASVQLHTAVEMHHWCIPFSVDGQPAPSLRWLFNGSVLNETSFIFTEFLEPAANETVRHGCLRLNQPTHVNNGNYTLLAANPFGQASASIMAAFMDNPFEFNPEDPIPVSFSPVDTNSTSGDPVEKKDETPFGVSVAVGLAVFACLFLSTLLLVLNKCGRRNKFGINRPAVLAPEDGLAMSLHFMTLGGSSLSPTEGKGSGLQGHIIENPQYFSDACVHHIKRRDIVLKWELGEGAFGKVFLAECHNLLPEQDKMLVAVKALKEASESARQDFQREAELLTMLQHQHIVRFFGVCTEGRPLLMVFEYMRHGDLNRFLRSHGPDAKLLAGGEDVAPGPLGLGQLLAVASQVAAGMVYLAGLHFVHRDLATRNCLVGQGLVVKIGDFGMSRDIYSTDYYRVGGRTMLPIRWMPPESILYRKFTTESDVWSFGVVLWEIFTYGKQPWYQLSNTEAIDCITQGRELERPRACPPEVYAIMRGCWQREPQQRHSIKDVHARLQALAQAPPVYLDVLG
Excerpt: as §1
`CC(=O)Nc1cc(Oc2ccc(NC(=O)N3CCN(c4ccccc4)C3=O)cc2)ccn1` [2-oxoimidazolidine-1-carboxamide, 5] gave an IC50 of 0.004 µM.
`Nc1cc(Oc2ccc(NC(=O)N3CCN(c4ccccc4)C3=O)cc2)ccn1` [2-oxoimidazolidine-1-carboxamide, 13] showed an IC50 of 0.02 µM.
With `CC(=O)Nc1cc(Oc2ccc(NC(=O)N3CCN(c4ccc(F)cc4)C3=O)cc2)ccn1` [2-oxoimidazolidine-1-carboxamide, 14] the IC50 was 0.003 µM.
Compound `CNC(=O)Nc1cc(Oc2ccc(NC(=O)N3CCN(c4ccccc4)C3=O)cc2)ccn1` [2-oxoimidazolidine-1-carboxamide, 15] has an IC50 of 0.005 µM.
`CNC(=O)Nc1cc(Oc2ccc(NC(=O)N3CCN(c4ccc(F)cc4)C3=O)cc2)ccn1` [2-oxoimidazolidine-1-carboxamide, 16] was tested, and the IC50 was 0.002 µM.
For `O=C(NCCN1CCCC1)Nc1cc(Oc2ccc(NC(=O)N3CCN(c4ccc(F)cc4)C3=O)cc2)ccn1` [2-oxoimidazolidine-1-carboxamide, 17], the IC50 was 0.004 µM.

— BindingDB's records for doi:10.7270/Q2X065P9 (Methylgene, 2012)
